Test systems include Escherichia coli HB101; Escherichia coli ML-35; Escherichia coli JM109; Escherichia coli W160-37; Proteus vulgaris.
What all share (assay): ≥ marks a high value that may be exact or a test limit, other limits are often not marked, values filed in µg/mL are converted to µM
Test [1] concerns Bacillus subtilis KCTC 1918.
Test [2] relates to Candida albicans TIMM 1768.
Test [3] concerns Proteus vulgaris KCTC 2433.
Test [4] deals with Saccharomyces cerevisiae KCTC 7296.
The subject of test [5] is Salmonella typhimurium KCTC 1926.
Test [6] concerns Staphylococcus aureus KCTC 1621.
The subject of test [7] is Trichosporon beigelii KCTC 7707.
Test [8] has as its system Acinetobacter baumannii NM35.
Test [9] concerns Acinetobacter baumannii NM8.
The test system of test [10] is Candida albicans ATCC 90028.
Test [11] concerns Enterococcus faecalis ATCC 29212.
In test [12] the test system is Escherichia coli ATCC 25726.
Test [13] deals with Klebsiella pneumoniae ATCC 700603.
The test system of test [14] is Pseudomonas aeruginosa ATCC 27853.
The subject of test [15] is Staphylococcus aureus 127/08.
Test [16] relates to Staphylococcus aureus 145/08.
Test [17] concerns Staphylococcus epidermidis RP62A/1.
In test [18] the test system is Staphylococcus epidermidis RP62A.
Test [19] concerns Staphylococcus epidermidis T37/8.
For test [20], the system named is Staphylococcus epidermidis T6/19.
The subject of test [21] is Stenotrophomonas maltophilia B32/1.
In test [22] the test system is Stenotrophomonas maltophilia B5/5.
Test [23] concerns Stenotrophomonas maltophilia U8908.
Test [24] deals with Candida albicans ATCC 37092.
Test [25] concerns Escherichia coli ATCC 25922.
Test [26] concerns Salmonella enterica subsp. enterica serovar Typhimurium ATCC 14028.
The subject of test [27] is Serratia marcescens ATCC 8100.
Test [28] relates to Staphylococcus aureus ATCC 25923.
Test [29] relates to Staphylococcus aureus ATCC 29213.
Test [30] deals with Bacillus subtilis IFO 3513.
Test [31] relates to Escherichia coli IFO 12734.
Test [32] relates to Micrococcus luteus ATCC 9341.
For test [33], the system named is Saccharomyces cerevisiae PEP 4/3l.
The test system of test [34] is Staphylococcus aureus ATCC 8530.
Test [35] has as its system Staphylococcus aureus IFO 12732.
In test [36] the test system is Aspergillus flavus KCTC 7375.
Test [37] deals with Bacillus megaterium KCTC 1096.
Test [38] has as its system Candida albicans KCTC 7121.
Test [39] concerns Escherichia coli KCTC 1682.
The subject of test [40] is Fusarium oxysporum KCTC 6084.
In test [41] the test system is Pseudomonas aeruginosa KCTC 1637.
In test [42] the test system is Trichosporon beigelii KCTC 7251.

Converted amounts (≈) assume the structure as drawn.

The term MIC denotes the lowest concentration that inhibits growth of the organism. Take `CC[C@H](C)[C@H](NC(=O)CNC(=O)[C@H](CC(C)C)NC(=O)[C@H](CCCN=C(N)N)NC(=O)[C@H](CCCCN)NC(=O)[C@H](Cc1ccccc1)NC(=O)[C@@H](NC(=O)[C@H](CCCCN)NC(=O)[C@H](Cc1c[nH]c2ccccc12)NC(=O)[C@H](C)N)C(C)C)C(=O)NCC(=O)N[C@@H](C)C(=O)N[C@H](C(=O)N[C@@H](CC(C)C)C(=O)N[C@@H](Cc1c[nH]c2ccccc12)C(=O)N[C@H](C(=O)N[C@@H](CC(C)C)C(=O)N[C@H](C(=O)N[C@@H](Cc1c[nH]c2ccccc12)C(=O)NCC(=O)O)[C@@H](C)O)C(C)C)C(C)C` [AWKVFKRLGIGAVLWVLTWG]: the MIC in test [1] is 6.25 µM (≈ 14.4 µg/mL); in [2] it was at least 50 µM; in [3] it was 6.25 µM (≈ 14.4 µg/mL); in [4], at least 50 µM; in [5], 0.78 µM (≈ 1.79 µg/mL); in test [6], 6.25 µM (≈ 14.4 µg/mL). This molecule registered an MIC in test [7] of at least 50 µM.

In the case of `CC[C@H](C)[C@H](NC(=O)CN)C(=O)N[C@@H](Cc1ccccc1)C(=O)N1CCC[C@H]1C(=O)N[C@H](C(=O)N[C@@H](Cc1ccccc1)C(=O)N[C@@H](C)C(=O)N[C@@H](CCCCN)C(=O)N[C@@H](CC(C)C)C(=O)N[C@@H](CC(C)C)C(=O)NCC(=O)N[C@@H](CCCCN)C(=O)N[C@H](C(=O)N[C@H](C(=O)N[C@@H](CCCCN)C(=O)N[C@H](C(=O)N[C@@H](C)C(=O)N[C@@H](CO)C(=O)N[C@@H](CO)C(=O)N[C@@H](CC(C)C)C(=O)N[C@H](C(=O)N[C@@H](CO)C(=O)N[C@@H](CCCCN)C(=O)NCC(=O)N[C@@H](CCCN=C(N)N)C(=O)N[C@H](C(=O)N[C@@H](CCC(=O)O)C(=O)O)[C@@H](C)O)[C@@H](C)CC)C(C)C)[C@@H](C)CC)C(C)C)[C@@H](C)CC` [GIFPIFAKLLGKVIKVASSLISKGRTE], the MIC is 10 µM (≈ 28.7 µg/mL) in [8]; 20 µM (≈ 57.5 µg/mL) in test [9]; at least 80 µM in [10]; 20 µM (≈ 57.5 µg/mL) in [11]; at least 80 µM in test [12]; above 80 µM in [13]. In addition, the MIC in [14] is above 80 µM; in [15], 5 µM (≈ 14.4 µg/mL); in [16], 10 µM (≈ 28.7 µg/mL); in test [17], 2.5 µM (≈ 7.18 µg/mL); in test [18], 5 µM (≈ 14.4 µg/mL); in [19], 10 µM (≈ 28.7 µg/mL). For the same molecule, the MIC is 5 µM (≈ 14.4 µg/mL) in test [20], 10 µM (≈ 28.7 µg/mL) in [21], at least 40 µM in test [22] and 20 µM (≈ 57.5 µg/mL) in [23].

`CC[C@H](C)[C@H](NC(=O)[C@H](CCCN=C(N)N)NC(=O)[C@@H](N)CCCN=C(N)N)C(=O)N[C@@H](CCCN=C(N)N)C(=O)N1CCC[C@H]1C(=O)N[C@@H](CCCN=C(N)N)C(=O)N1CCC[C@H]1C(=O)N1CCC[C@H]1C(=O)N[C@@H](CCCN=C(N)N)C(=O)N[C@@H](CC(C)C)C(=O)N1CCC[C@H]1C(=O)N[C@@H](CCCN=C(N)N)C(=O)N1CCC[C@H]1C(=O)N[C@@H](CCCN=C(N)N)C(=O)N1CCC[C@H]1C(=O)O` [RRIRPRPPRLPRPRP]: the MIC was 28.8 µM (≈ 55.3 µg/mL) in [24]; 45.3 µM (≈ 86.9 µg/mL) in test [25]; 16 µM (≈ 30.7 µg/mL) in the test with Escherichia coli HB101; at least 128 µM against Escherichia coli ML-35; 128 µM (≈ 246 µg/mL) in test [26]; at least 128 µM in test [27]. Moreover, the minimal inhibitory concentration (MIC) was above 128 µM in test [28] and above 500 µM in test [29].

As to `CC[C@H](C)[C@H](N)C(=O)N[C@@H](CC(C)C)C(=O)N1CCC[C@H]1C(=O)N[C@@H](Cc1ccccc1)C(=O)N[C@@H](CCCCN)C(=O)N[C@@H](Cc1ccccc1)C(=O)N1CCC[C@H]1C(=O)N[C@@H](Cc1ccccc1)C(=O)N[C@@H](Cc1ccccc1)C(=O)N1CCC[C@H]1C(=O)N[C@@H](Cc1ccccc1)C(=O)N[C@@H](CCCN=C(N)N)C(=O)N[C@@H](CCCN=C(N)N)C(N)=O` [ILPFKFPFFPFRR], the minimal inhibitory concentration (MIC) in test [30] was 7.3 µM (≈ 12.5 µg/mL); in test [31], at least 58.4 µM; in the test on Escherichia coli JM109, 8 µM (≈ 13.7 µg/mL); with Escherichia coli W160-37, 16 µM (≈ 27.4 µg/mL); in [32], 0.4 µM (≈ 0.684 µg/mL); in test [33], 13.1 µM (≈ 22.3 µg/mL). Besides, the MIC was 1.65 µM (≈ 2.83 µg/mL) in test [34] and 3.65 µM (≈ 6.25 µg/mL) in test [35].

For the molecule `CC[C@H](C)[C@H](NC(=O)[C@H](CCCCN)NC(=O)[C@H](CCCCN)NC(=O)[C@H](Cc1ccccc1)NC(=O)[C@H](CC(C)C)NC(=O)[C@H](CCCCN)NC(=O)[C@H](Cc1c[nH]c2ccccc12)NC(=O)[C@@H](N)CCCCN)C(=O)N1CCC[C@H]1C(=O)N[C@@H](CCCCN)C(=O)N[C@@H](Cc1ccccc1)C(=O)N[C@@H](CC(C)C)C(=O)N[C@@H](Cc1cnc[nH]1)C(=O)N[C@@H](CC(C)C)C(=O)N[C@@H](C)C(N)=O` [KWKLFKKIPKFLHLA], the minimum inhibitory concentration (MIC) in test [36] is at least 100 µM; in test [37], 3.12 µM (≈ 5.93 µg/mL); in [1], 0.78 µM (≈ 1.48 µg/mL); in [38], at least 50 µM; in test [39], 8.84 µM (≈ 16.8 µg/mL); in test [40] it was at least 100 µM. For the same molecule, the MIC in the test on Proteus vulgaris was 3.12 µM (≈ 5.93 µg/mL); in [41], 6.25 µM (≈ 11.9 µg/mL); in test [6] it was 6.25 µM (≈ 11.9 µg/mL); in test [42], at least 50 µM.

Values taken from DBAASP.
